Results published in publication PMC12192500, “Selective Dual Inhibition of TNKS1 and CDK8 by TCS9725 Attenuates STAT1/β-Catenin/TGFβ1 Signaling in Renal Cancer” (Current Issues in Molecular Biology, 2025).

What was measured:
[1] = target: T1, TNKS1 (Tankyrase 1, PARP5A) (Homo sapiens, UniProt O95271); assay: TNKS1 colorimetric PARP activity assay kit (BPS #[…]), histone-coated plate; assay type: biochemical
T1 construct: gene TNKS

[2] = target: CDK8 (Cyclin-dependent kinase 8) (Homo sapiens, UniProt P49336); assay: luminescence-based kinase assay; assay type: biochemical
Sequence of CDK8 (Cyclin-dependent kinase 8) (P49336 whole entry): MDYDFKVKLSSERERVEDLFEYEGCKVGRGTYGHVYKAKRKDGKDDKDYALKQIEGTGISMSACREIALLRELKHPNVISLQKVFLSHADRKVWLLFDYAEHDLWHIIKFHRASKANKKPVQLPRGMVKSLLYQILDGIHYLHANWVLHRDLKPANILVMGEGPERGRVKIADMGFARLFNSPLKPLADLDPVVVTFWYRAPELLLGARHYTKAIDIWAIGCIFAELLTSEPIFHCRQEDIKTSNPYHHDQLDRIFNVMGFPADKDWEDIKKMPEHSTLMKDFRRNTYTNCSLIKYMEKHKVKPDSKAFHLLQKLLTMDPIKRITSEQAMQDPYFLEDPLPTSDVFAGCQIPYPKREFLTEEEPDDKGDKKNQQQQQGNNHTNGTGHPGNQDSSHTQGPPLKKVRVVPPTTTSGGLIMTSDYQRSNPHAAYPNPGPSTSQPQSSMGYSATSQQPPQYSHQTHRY

T1 sequence (O95271 whole entry): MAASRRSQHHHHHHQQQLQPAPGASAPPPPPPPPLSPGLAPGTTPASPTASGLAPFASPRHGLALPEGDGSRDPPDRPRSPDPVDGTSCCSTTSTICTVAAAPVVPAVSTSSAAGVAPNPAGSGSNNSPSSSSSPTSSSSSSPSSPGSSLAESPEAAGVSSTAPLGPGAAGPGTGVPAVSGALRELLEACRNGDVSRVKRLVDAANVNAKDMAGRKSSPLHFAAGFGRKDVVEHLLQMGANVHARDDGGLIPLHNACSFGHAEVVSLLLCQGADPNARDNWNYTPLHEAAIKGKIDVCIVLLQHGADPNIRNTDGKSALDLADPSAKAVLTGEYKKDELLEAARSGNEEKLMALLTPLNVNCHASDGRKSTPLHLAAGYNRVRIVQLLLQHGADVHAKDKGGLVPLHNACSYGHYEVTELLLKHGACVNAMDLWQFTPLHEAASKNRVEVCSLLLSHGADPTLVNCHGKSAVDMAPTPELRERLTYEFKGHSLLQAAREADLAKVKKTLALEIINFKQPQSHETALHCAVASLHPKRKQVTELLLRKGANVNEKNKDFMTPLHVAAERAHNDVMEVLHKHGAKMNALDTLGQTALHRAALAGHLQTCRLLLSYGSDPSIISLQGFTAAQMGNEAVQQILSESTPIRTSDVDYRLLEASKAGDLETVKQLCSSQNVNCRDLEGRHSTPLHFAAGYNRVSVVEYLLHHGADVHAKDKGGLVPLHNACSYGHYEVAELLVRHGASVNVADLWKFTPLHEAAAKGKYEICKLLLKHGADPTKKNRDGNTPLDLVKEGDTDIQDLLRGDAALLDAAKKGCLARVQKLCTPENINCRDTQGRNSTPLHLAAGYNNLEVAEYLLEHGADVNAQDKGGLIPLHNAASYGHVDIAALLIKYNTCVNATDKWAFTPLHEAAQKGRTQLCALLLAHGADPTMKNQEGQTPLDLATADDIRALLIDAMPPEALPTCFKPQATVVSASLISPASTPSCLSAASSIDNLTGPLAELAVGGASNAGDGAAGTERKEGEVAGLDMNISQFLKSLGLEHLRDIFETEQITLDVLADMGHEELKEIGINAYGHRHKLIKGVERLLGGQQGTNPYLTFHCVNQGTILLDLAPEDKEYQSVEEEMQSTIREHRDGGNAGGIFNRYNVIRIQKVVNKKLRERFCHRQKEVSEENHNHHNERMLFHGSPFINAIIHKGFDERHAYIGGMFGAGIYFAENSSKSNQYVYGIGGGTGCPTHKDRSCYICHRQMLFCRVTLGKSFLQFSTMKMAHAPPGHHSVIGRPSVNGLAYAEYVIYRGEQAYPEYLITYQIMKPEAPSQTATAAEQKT

O=c1cccc(-c2ccc(Cl)cc2)o1 [TCS9725, 6-(4-chlorophenyl)-2H-pyran-2-one]
IC50 [1]: 243 nM | IC50 [2]: 404 nM
